According to patent publication US7799775B2, “Pyrimidine derivatives” (ASKA Pharmaceutical Co., Ltd., priority 2004, dated 2010):

Experiments:
human 5-HT1A receptor = molecular target: T1, human 5-HT1A receptor (Homo sapiens, UniProt P08908); assay: Affinity measurement of the compounds to human 5-HT1A receptor (in vitro), [3H]8-OH-DPAT binding; conditions: test compound 100 nmols/L; [3H]8-OH-DPAT 0.25 nmols/L; CHO cell membrane expressing human 5-HT1A receptor; read-out: Percent Inhibition (%) on Each Receptor's Binding at 10^−7M, 5-HT1A
T1 construct: purchased Packard Bioscience; host or cells: CHO cells (membrane preparation)
T1 sequence (P08908 1-422): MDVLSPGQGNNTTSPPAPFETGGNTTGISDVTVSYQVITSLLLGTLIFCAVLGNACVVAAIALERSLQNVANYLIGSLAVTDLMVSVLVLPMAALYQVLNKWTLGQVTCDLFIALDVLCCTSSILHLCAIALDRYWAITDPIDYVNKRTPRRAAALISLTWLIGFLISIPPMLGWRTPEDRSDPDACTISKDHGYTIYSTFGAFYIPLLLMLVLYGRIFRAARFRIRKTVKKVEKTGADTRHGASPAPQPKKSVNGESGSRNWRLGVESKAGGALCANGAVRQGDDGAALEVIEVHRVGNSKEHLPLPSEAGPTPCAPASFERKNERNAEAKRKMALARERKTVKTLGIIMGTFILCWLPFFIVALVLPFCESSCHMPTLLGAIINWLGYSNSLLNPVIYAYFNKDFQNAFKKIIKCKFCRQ
Method: (1) Affinity Measurement of the Compounds to Human 5-HT1A Receptor (in Vitro)
CHO cell membrane sample in which human 5-HT1A receptor was expressed (purchased from Packard Bioscience) 0.25 mL (about 50 units) was added to 24.75 mL of incubation buffer solution A (an aqueous solution of a mixture of 50 mmols/L of Tris-hydrochloric acid, 10 mmols/L of magnesium sulfate, 0.5 mmols/L of EDTA and 0.1% ascorbic acid, whose pH was adjusted to 7.4 at 27° C. with 1N-aqueous sodium hydroxide solution), and labeled as membrane sample suspension A. Separately, each test compound was made into 270 μmols/L DMSO solution and diluted to a prescribed concentration with the incubation buffer solution A, to provide a compound solution.
A piece of polypropylene tube was charged with 20 μL of [^3H]8-OH-DPAT (8-hydroxy-2-(di-n-propylamino)tetralin; purchased from Daiichi Pure Chemicals Co., Ltd.) (The concentration of the [^3H]8-OH-DPAT had been advancedly adjusted to render its concentration in the reaction mixture to 0.25 nmols/L) and 20 μL of one of the compound solutions. Further 500 μL of the membrane sample suspension A was added into the tube, followed by 60 minutes' incubation at 27° C. The reaction was terminated by rapid filtration of the reaction mixture through GF/C filter which had been advancedly immersed in a solution formed by adding to the incubation buffer solution A polyethyleneimine to a concentration of 0.3%, using Brandel cell harvester. Then the filter was washed with about 5 mL of 50 mmols/L of Tris-hydrochloric acid which had been cooled to 4° C. The filter was once again washed after similar operation.
(§1) Residual radioactivity on the filter was measured with liquid scintillation counter (Aloka Co., LSC-5100). Percent inhibition (%) of each test compound to binding of [^3H]8-OH-DPAT to 5-HT1A receptor at a concentration of 0.25 nmols/L, i.e., affinity of each test compound to 5-HT1A receptor, can be calculated according to the following expression. The ratio of non-specific binding was calculated by measuring the radioactivity in case of using 8-OH-DPAT at a concentration of 10 μmols/L, with which value the measured value of each test compound was compensated.
(§2) Affinity of each test compound to 5-HT1A receptor and 5-HT3 receptor at a concentration of 100 nmols/L were as shown in the following Tables A-1 and A-2. BRL-43694 and tropisetron (ICS 205-930), which were used in measuring affinity of those compounds to 5-HT3 receptor, have the following structures: […]

human 5-HT3 receptor = molecular target: T2, human 5-HT3 receptor (Homo sapiens, UniProt P46098); assay: Measurement of affinity to human 5-HT3 receptor (in vitro), [3H]BRL-43694 binding; conditions: test compound 100 nmols/L; [3H]BRL-43694 0.5 nmols/L; HEK-293 cell membrane expressing human 5-HT3 receptor; read-out: Percent Inhibition (%) on Each Receptor's Binding at 10^−7M, 5-HT3
T2 construct: purchased BIOLINKS K.K; host or cells: HEK-293 cells (membrane preparation)
T2 sequence (P46098 24-478): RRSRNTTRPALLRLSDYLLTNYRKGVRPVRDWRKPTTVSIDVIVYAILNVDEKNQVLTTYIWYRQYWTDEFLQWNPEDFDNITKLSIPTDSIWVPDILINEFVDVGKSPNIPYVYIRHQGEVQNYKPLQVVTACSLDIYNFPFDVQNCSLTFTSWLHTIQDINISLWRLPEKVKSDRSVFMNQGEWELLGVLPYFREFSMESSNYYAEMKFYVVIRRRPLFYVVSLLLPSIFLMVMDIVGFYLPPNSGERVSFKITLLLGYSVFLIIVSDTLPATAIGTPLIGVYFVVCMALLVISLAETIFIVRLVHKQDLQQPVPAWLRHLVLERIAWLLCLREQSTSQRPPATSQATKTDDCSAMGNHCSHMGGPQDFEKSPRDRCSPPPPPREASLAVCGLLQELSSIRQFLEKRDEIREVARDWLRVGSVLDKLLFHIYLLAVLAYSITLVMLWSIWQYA
Method: (2) Measurement of Affinity of Each Test Compound to Human 5-HT3 Receptor (in Vitro):
HEK-293 cell membrane sample in which human 5-HT3 receptor was expressed (purchased from BIOLINKS K.K.) 0.05 mL (about 50 microassay) was added to 24.95 mL of incubation buffer solution B (an aqueous solution of a mixture of 50 mmols/L of Tris-hydrochloric acid, 5 mmols/L of magnesium chloride and 1 mmol/L of EDTA, whose pH was adjusted to 7.5 at 25° C. with 1N-aqueous sodium hydroxide solution) and homogenized, to provide a membrane sample suspension B. Separately, each test compound was made into 270 μmols/L of DMSO solution and diluted to a prescribed concentration with the incubation buffer solution B to provide a compound solution.
A piece of polypropylene tube was charged with 20 μL of [^3H]BRL-43694 (purchased from Daiichi Pure Chemicals Co., Ltd.) (The concentration of [^3H]BRL-43694 had been advancedly adjusted to render its concentration in the reaction mixture to 0.5 nmols/L.) and 20 μL of one of the compound solutions. Further 500 μL of the membrane sample suspension B was added into the tube, followed by 60 minutes' incubation at 25° C. The reaction was terminated by rapid filtration of the reaction mixture through GF/B filter which had been advancedly immersed in a solution formed by adding to the incubation buffer solution B polyethyleneimine to a concentration of 0.5%, using Brandel cell harvester. Then the filter was washed with about 5 mL of 50 mmols/L of Tris-hydrochloric acid which had been cooled to 4° C. The filter was once again washed after similar operation.
as §1, with “(ALOKA CO., LTD.” for “(Aloka Co.,”, “[^3H]BRL-43694” for “[^3H]8-OH-DPAT”, “5-HT3” for “5-HT1A”, “0.5” for “0.25”, “tropisetron: (ICS 205-930)” for “8-OH-DPAT”
as §2

Structure (SMILES)	inhibition at 0.1 µM (human 5-HT1A receptor) [%]	inhibition at 0.1 µM (human 5-HT3 receptor) [%]
COc1ccc2ccnc(N3CCN4CCCCC4C3)c2c1 (stereo not shown) [Production Example 81, 7-methoxy-1-octahydropyrido[1,2-a]pyrazin-2-ylisoquinoline]	95.8	74.4
Nn1c(CCCCN2CCN(c3ccc4ccccc4n3)CC2)nc2c(c1=O)CCCCC2 [Example 4-42, 3-amino-2-[4-(4-quinolin-2-ylpiperazin-1-yl)butyl]-5,6,7,8,9-pentahydro-3H-cyclohepta[d]pyrimidin-4-one]	95.8	58.5
COc1ccc2ccnc(N3CCN(Cc4ccc5c(c4)OCO5)CC3)c2c1 [Production Example 71, 1-(4-benzo[1,3]dioxol-5-ylmethylpiperazin-1-yl)-7-methoxyisoquinoline]	94.8	42.2
c1cc2occc2c(N2CCN3CCC[C@@H]3C2)n1 [Production Example 113, 4-((8aR)-octahydropyrrolo[1,2-a]pyrazin-2-yl)furo[3,2-c]pyridine]	56.4	82.4
Nn1c(NCCCN2CCN(c3ccc4ccccc4n3)CC2)nc2c(c1=O)CCCC2 [Example 6-2, 3-amino-2-[3-(4-quinolin-2-ylpiperazin-1-yl)propylamino]-5,6,7,8-tetrahydro-3H-quinazolin-4-one]	92.4	39.3
Cn1c(CCCCN2CCN(c3ccc4ccccc4n3)CC2)nc2cccc(Cl)c2c1=O [Example 7-18, 5-chloro-3-methyl-2-[4-(4-quinolin-2-ylpiperazin-1-yl)butyl]-3H-quinazolin-4-one]	93.1	68.8
c1cc2ccoc2c(N2CCN3CCCCC3C2)n1 (stereo not shown) [Production Example 118, 7-octahydropyrido[1,2-a]pyrazin-2-ylfuro[2,3-c]pyridine]	76	84.9
Cc1cc(N2CCN(CCCNc3nc4c(c(=O)[nH]3)CCCC4)CC2)nc2ccccc12 [Example 5-3, 2-[3-[4-(4-methylquinolin-2-yl)piperazin-1-yl]propylamino]-5,6,7,8-tetrahydro-3H-quinazolin-4-one]	76	74.5
Cc1cc(N2CCN(CCCCc3nc4c(c(=O)n3Cc3ccccc3)CCCC4)CC2)nc2ccccc12 [Example 7-8, 3-benzyl-2-[4-[4-(4-methylquinolin-2-yl)piperazin-1-yl]butyl]-5,6,7,8-tetrahydro-3H-quinazolin-4-one]	93.4	78.8
CCC1CCc2nc(CCCCN3CCN(c4ccc5ccccc5n4)CC3)n(N)c(=O)c2C1 (stereo not shown) [Example 4-61, 3-amino-6-ethyl-2-[4-(4-quinolin-2-ylpiperazin-1-yl)butyl]-5,6,7,8-tetrahydro-3H-quinazolin-4-one]	96.8	88.7
c1ccc(CO[C@@H]2C[C@H]3CN(c4nccc5ccsc45)CCN3C2)cc1 [Production Example 116, 7-((7R,8aS)-7-benzyloxyoctahydropyrrolo[1,2-a]pyrazin-2-yl)thieno-[2,3-c]pyridine]	70.6	25.6
Cc1ccc2c(=O)n(C)c(CCCCN3CCN(c4ccc5ccccc5n4)CC3)nc2c1 [Example 7-24, 3,7-dimethyl-2-[4-(4-quinolin-2-ylpiperazin-1-yl)butyl]-3H-quinazolin-4-one]	78.3	30
O=c1c2c(nc(CCCCN3CCN(c4ccc5ccccc5n4)CC3)n1Cc1ccccc1)CCCC2 [Example 7-4, 3-benzyl-2-[4-(4-quinolin-2-ylpiperazin-1-yl)butyl]-5,6,7,8-tetrahydro-3H-quinazolin-4-one]	85	61.2
Cc1sc2nc(CCCCN3CCN(c4ccc5ccccc5n4)CC3)n(N)c(=O)c2c1C [Example 4-35, 3-amino-5,6-dimethyl-2-[4-(4-quinolin-2-ylpiperazin-1-yl)butyl]-3H-thieno[2,3-d]pyrimidin-4-one]	98	96.9
